According to ChEMBL document CHEMBL1201862, “PubChem BioAssay data set” (2004):
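In this assay, cells in 96-well plates receive the compound at five concentrations for 48 hours. Endpoints are linearly interpolated between the surrounding concentrations. GI50 = concentration required for 50% inhibition of growth.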 Activity calls are given as the source filed them. Rule as the data show it: active = GI50 up to about 1.1 µM and inactive = higher.

What was measured:
Assay in all cases: NCI tumour cell line growth inhibition, 48 h
[1] = system: CCRF-CEM
[2] = system: EKVX
[3] = system: HCC 2998
[4] = system: HL-60
[5] = system: KM12
[6] = system: M14
[7] = system: MCF7
[8] = system: MDA-MB-435
[9] = system: NCI-H23
[10] = system: NCI-H522
[11] = system: SF-268
[12] = system: SF-295
[13] = system: SK-MEL-28
[14] = system: SN12C
[15] = system: SNB-19
[16] = system: SNB-75
[17] = system: TK-10
[18] = system: UACC-257
[19] = system: UO-31
[20] = system: A498

| SMILES | GI50 [1] | GI50 [2] | GI50 [3] | GI50 [4] | GI50 [5] | GI50 [6] | GI50 [7] | GI50 [8] | GI50 [9] | GI50 [10] | GI50 [11] | GI50 [12] | GI50 [13] | GI50 [14] | GI50 [15] | GI50 [16] | GI50 [17] | GI50 [18] | GI50 [19] | GI50 [20] |
| --- | --- | --- | --- | --- | --- | --- | --- | --- | --- | --- | --- | --- | --- | --- | --- | --- | --- | --- | --- | --- |
| CC(OC(=O)C(CC(=O)OC(C)(C)C)NC(=O)OC(C)(C)C)C(=O)OCc1ccccc1 (stereo unspecified) | > 100 µM (inactive) | > 100 µM (inactive) | > 100 µM (inactive) | > 100 µM (inactive) | > 100 µM (inactive) | > 100 µM (inactive) | > 100 µM (inactive) | > 100 µM (inactive) | > 100 µM (inactive) | > 100 µM (inactive) | > 100 µM (inactive) | > 100 µM (inactive) | > 100 µM (inactive) | > 100 µM (inactive) | > 100 µM (inactive) | > 100 µM (inactive) | > 100 µM (inactive) | > 100 µM (inactive) | > 100 µM (inactive) | – |
| C[C@]12CC[C@H]3[C@@H](CCC4=C[C@@H](N5CCCC5)CC[C@@]43C)[C@@H]1C/C(=C\c1ccncc1)[C@@H]2O | 0.445 µM (active) | 15.7 µM (inactive) | 5.07 µM (inactive) | 16 µM (inactive) | 9.57 µM (inactive) | 2.39 µM (inactive) | 12.8 µM (inactive) | 10.3 µM (inactive) | 15.5 µM (inactive) | 10.3 µM (inactive) | 16.5 µM (inactive) | 4.91 µM (inactive) | 7.31 µM (inactive) | 14.1 µM (inactive) | 14.5 µM (inactive) | 14.3 µM (inactive) | 13.2 µM (inactive) | 6.19 µM (inactive) | 4.92 µM (inactive) | – |
| CCCC(=O)NC(NC1CCCCC1)(C(=O)OCC)C(F)(F)F (stereo unspecified) | > 100 µM (inactive) | > 100 µM (inactive) | > 100 µM (inactive) | > 100 µM (inactive) | > 100 µM (inactive) | > 100 µM (inactive) | > 100 µM (inactive) | > 100 µM (inactive) | > 100 µM (inactive) | > 100 µM (inactive) | > 100 µM (inactive) | > 100 µM (inactive) | > 100 µM (inactive) | > 100 µM (inactive) | > 100 µM (inactive) | 29.7 µM (inactive) | > 100 µM (inactive) | > 100 µM (inactive) | > 100 µM (inactive) | – |
| CN(C(=O)c1ccc2c(c1)sc1c(=O)n(C)c3ccccc3c12)c1ccccc1 | > 100 µM (inactive) | > 100 µM (inactive) | > 100 µM (inactive) | > 100 µM (inactive) | > 100 µM (inactive) | > 100 µM (inactive) | > 100 µM (inactive) | > 100 µM (inactive) | > 100 µM (inactive) | > 100 µM (inactive) | – | > 100 µM (inactive) | > 100 µM (inactive) | > 100 µM (inactive) | > 100 µM (inactive) | > 100 µM (inactive) | > 100 µM (inactive) | > 100 µM (inactive) | 37.7 µM (inactive) | – |
| CC(C)(C)OC(=O)NCC(c1c[nH]c2cc(Br)ccc12)c1c[nH]c2cc(Br)ccc12 | 62.1 µM (inactive) | 16.2 µM (inactive) | 18.9 µM (inactive) | 27.2 µM (inactive) | 18.3 µM (inactive) | 18.7 µM (inactive) | 18.6 µM (inactive) | 16.8 µM (inactive) | 18.2 µM (inactive) | 17.3 µM (inactive) | 16.3 µM (inactive) | 18.6 µM (inactive) | 29.2 µM (inactive) | 18.5 µM (inactive) | 21.8 µM (inactive) | 21.9 µM (inactive) | 19.7 µM (inactive) | 19.9 µM (inactive) | 17.5 µM (inactive) | – |
| N#CC(c1ccccc1)N(CCCCCCN(C(=O)c1ccccc1)C(C#N)c1ccccc1)C(=O)c1ccccc1 (stereo unspecified) | 49.8 µM (inactive) | 50.4 µM (inactive) | 17.1 µM (inactive) | 32.3 µM (inactive) | 38.5 µM (inactive) | 41.2 µM (inactive) | 28.1 µM (inactive) | 32.8 µM (inactive) | 26.2 µM (inactive) | – | 40.4 µM (inactive) | 27.9 µM (inactive) | 44.4 µM (inactive) | 44.9 µM (inactive) | 44.2 µM (inactive) | 52.4 µM (inactive) | 18.7 µM (inactive) | 22.8 µM (inactive) | 18 µM (inactive) | 15 µM (inactive) |
| O=C(NC/C(Cl)=C/Cl)Nc1cccc2c1CCCC2 | – | 82.8 µM (inactive) | > 100 µM (inactive) | – | > 100 µM (inactive) | > 100 µM (inactive) | > 100 µM (inactive) | > 100 µM (inactive) | > 100 µM (inactive) | > 100 µM (inactive) | > 100 µM (inactive) | > 100 µM (inactive) | > 100 µM (inactive) | > 100 µM (inactive) | > 100 µM (inactive) | > 100 µM (inactive) | 46.7 µM (inactive) | 58.9 µM (inactive) | > 100 µM (inactive) | 65.8 µM (inactive) |
